The test deals with T1, LXRβ (Homo sapiens, UniProt P55055).
T1 construct: Co-transfection expression plasmids, comprising full-length LXRα (pCMX-h LXRα or LXRβ (pCMX-hLXRβ)); expressed in transfected cells; host or cells: CV-1 African green monkey kidney cells, transient transfection with pCMX-hLXRβ
T1 sequence (P55055 1-460): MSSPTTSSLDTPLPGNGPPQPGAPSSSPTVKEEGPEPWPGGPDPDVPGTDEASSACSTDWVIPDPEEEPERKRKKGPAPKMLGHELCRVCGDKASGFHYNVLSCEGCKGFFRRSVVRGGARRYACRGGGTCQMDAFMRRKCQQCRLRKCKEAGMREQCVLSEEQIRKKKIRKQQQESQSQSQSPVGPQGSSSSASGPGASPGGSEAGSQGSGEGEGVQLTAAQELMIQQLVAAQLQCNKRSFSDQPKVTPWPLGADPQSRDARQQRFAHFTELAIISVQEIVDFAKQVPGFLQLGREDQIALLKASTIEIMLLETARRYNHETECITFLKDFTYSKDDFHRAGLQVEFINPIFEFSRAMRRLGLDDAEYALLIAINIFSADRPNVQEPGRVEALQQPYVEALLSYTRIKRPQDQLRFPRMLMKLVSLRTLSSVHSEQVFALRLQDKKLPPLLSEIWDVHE
T1 sequence (P19793 1-462 partner): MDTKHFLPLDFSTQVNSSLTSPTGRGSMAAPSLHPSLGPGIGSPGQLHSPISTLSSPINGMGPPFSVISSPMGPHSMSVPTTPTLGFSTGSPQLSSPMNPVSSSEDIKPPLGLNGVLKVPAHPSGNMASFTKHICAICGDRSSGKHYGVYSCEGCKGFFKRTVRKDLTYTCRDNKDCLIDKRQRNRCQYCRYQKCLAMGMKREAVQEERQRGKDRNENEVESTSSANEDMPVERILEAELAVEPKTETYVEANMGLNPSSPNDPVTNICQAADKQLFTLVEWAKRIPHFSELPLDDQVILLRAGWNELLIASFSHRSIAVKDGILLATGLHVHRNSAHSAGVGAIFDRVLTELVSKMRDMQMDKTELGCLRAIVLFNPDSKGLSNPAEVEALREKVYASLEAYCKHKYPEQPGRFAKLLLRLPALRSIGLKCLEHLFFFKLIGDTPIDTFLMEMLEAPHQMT
In words: LXR/LXRE co-transfection assay (luciferase reporter) in CV-1 cells, LXRβ. The format is cell-based. The note with it: for EC50: CV-1 cells transfected with pCMX-hLXRβ and LXREx1-Tk-Luciferase, 20 hours incubation, read-out: LXRbeta agonism EC50; for Emax: read-out: LXRbeta % EFFICACY
In outline:
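Luciferase read-out after 20 h compound treatment at 37 °C of CV-1 cells carrying transfected hLXRβ plus one-copy LXRE reporter, endogenous RXR partnering. Sigmoidal fit of 10-point half-log curves (4 wells each) gave EC50; % efficacy versus maximal response of the propionamide reference agonist.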
On the technique in general: A reporter such as luciferase makes a cellular process visible.

The mark [1] stands for this setting: CV-1 cells, relative to maximum response of high control N-(3-((4-fluorophenyl)-(naphthalene-2-sulfonyl)amino)propyl)-2,2-dimethylpropionamide.

Molecules are shown by their SMILES.

For `Cc1nc(-c2ccc3c(c2)OC(F)(F)O3)c(-c2cc(-c3cccc(S(C)(=O)=O)c3)ccc2-c2cc(C(C)C#N)nn2C)o1` (stereo not drawn) [Example 117, 2-(5-(3-(4-(2,2-difluorobenzo[d][1,3]dioxol-5-yl)-2-methyloxazol-5-yl)-3′-(methylsulfonyl)-[1,1′-biphenyl]-4-yl)-1-methyl-1H-pyrazol-3-yl)propanenitrile], the EC50 was found to be 49 nM. Also, under setting [1], the “LXRbeta % EFFICACY” value stood at 70%.

Consider `Cc1nc(-c2cc(-c3cccc(S(C)(=O)=O)c3)ccc2-n2ccc(C(F)(F)F)n2)c(-c2ccc(OC(F)F)nc2)o1` [Example 394, 5-(6-(difluoromethoxy)pyridin-3-yl)-2-methyl-4-(3′-(methylsulfonyl)-4-(3-(trifluoromethyl)-1H-pyrazol-1-yl)biphenyl-3-yl)oxazole], for which the concentration giving a half-maximal response (EC50) amounted to 16 nM. Moreover, the Emax under setting [1] came out at 97%.

On to `CC(C)c1nc(-c2cc(-c3cc(F)c(CO)c(S(C)(=O)=O)c3)ccc2-n2ccc(C(F)(F)F)n2)c(-c2ccc(OC(F)(F)F)cc2)o1` [Example 398, (3-fluoro-3′-(2-isopropyl-5-(4-(trifluoromethoxy)phenyl)oxazol-4-yl)-5-(methylsulfonyl)-4′-(3-(trifluoromethyl)-1H-pyrazol-1-yl)biphenyl-4-yl)methanol], for which the concentration giving a half-maximal response (EC50) amounted to 38 nM. For the same compound, under setting [1], the Emax was 63%.

As to `Cc1nc(-c2ccc3c(c2)OC(F)(F)O3)c(-c2cc(-c3cc(F)c(CO)c(S(C)(=O)=O)c3)ccc2-c2cc(CO)nn2C)o1` [Example 99, (5-(3-(4-(2,2-difluorobenzo[d][1,3]dioxol-5-yl)-2-methyloxazol-5-yl)-3′-fluoro-4′-(hydroxymethyl)-5′-(methylsulfonyl)-[1,1′-biphenyl]-4-yl)-1-methyl-1H-pyrazol-3-yl)methanol], the EC50 is 279 nM. The Emax under setting [1] was 26%.

`Cc1nc(-c2cc(-c3cc(F)c(CO)c(S(C)(=O)=O)c3)ccc2-n2ccc(C(F)(F)F)n2)c(-c2ccc(Cl)cc2)o1` [Example 400, (3′-(5-(4-chlorophenyl)-2-methyloxazol-4-yl)-3-fluoro-5-(methylsulfonyl)-4′-(3-(trifluoromethyl)-1H-pyrazol-1-yl)biphenyl-4-yl)methanol]: the concentration giving a half-maximal response (EC50) was determined as 38 nM. Moreover, under setting [1], the Emax worked out at 53%.

Take `Cc1nc(-c2ccc(OC(F)(F)F)cc2)c(-c2cc(-c3cccc(S(C)(=O)=O)c3)ccc2-n2cc(Cl)c(C(F)(F)F)n2)o1` [Example 380, 5-(4-(4-chloro-3-(trifluoromethyl)-1H-pyrazol-1-yl)-3′-(methylsulfonyl)-[1,1′-biphenyl]-3-yl)-2-methyl-4-(4-(trifluoromethoxy)phenyl) oxazole]: the EC50 was 465 nM. For the same compound, under setting [1], the Emax was found to be 29%.

Take `Cc1nc(-c2ccc3c(c2)OC(F)(F)O3)c(-c2cc(-c3cc(F)c(CO)c(S(C)(=O)=O)c3)ccc2-c2cc(C(F)(F)c3nnco3)nn2C)o1` [Example 51, (4′-(3-(difluoro(1,3,4-oxadiazol-2-yl)methyl)-1-methyl-1H-pyrazol-5-yl)-3′-(4-(2,2-difluorobenzo[d][1,3]dioxol-5-yl)-2-methyloxazol-5-yl)-3-fluoro-5-(methylsulfonyl)biphenyl-4-yl)methanol]: the EC50 stood at 7 nM. Also, the Emax under setting [1] came out at 73%.

As to `Cc1nc(-c2cc(-c3cccc(S(C)(=O)=O)c3)ccc2-n2ccc(C(C)(C)O)n2)c(-c2ccc(OC(F)(F)F)cc2)o1` [Example 417, 2-(1-(3-(2-methyl-5-(4-(trifluoromethoxy)phenyl)oxazol-4-yl)-3′-(methylsulfonyl)-[1,1′-biphenyl]-4-yl)-1H-pyrazol-3-yl)propan-2-ol], the EC50 worked out at 1010 nM. For the same compound, the Emax under setting [1] amounted to 16%.

For `Cc1nc(-c2ccc(OC(F)(F)F)cc2)c(-c2cc(-c3cccc(S(C)(=O)=O)c3)ccc2-n2cc(Cl)c(C(C)(C)O)n2)o1` [Example 441, 2-(4-chloro-1-(3-(2-methyl-4-(4-(trifluoromethoxy)phenyl)oxazol-5-yl)-3′-(methylsulfonyl)-[1,1′-biphenyl]-4-yl)-1H-pyrazol-3-yl) propan-2-ol], the EC50 worked out at 176 nM. Under setting [1], the Emax stood at 31%.

For the compound `Cc1nc(-c2cc(-c3cccc(S(C)(=O)=O)c3)ccc2-n2nc(C(F)(F)F)cc2Cl)c(-c2ccc(OC(F)(F)F)cc2)o1` [Example 406, 4-(4-(5-chloro-3-(trifluoromethyl)-1H-pyrazol-1-yl)-3′-(methylsulfonyl)biphenyl-3-yl)-2-methyl-5-(4-(trifluoromethoxy)phenyl)oxazole], the 50% effective concentration (EC50) worked out at 143 nM. Also, the Emax under setting [1] came out at 63%.

`Cc1nc(-c2cc(F)c(OC(F)F)c(F)c2)c(-c2cc(-c3cc(F)c(CO)c(S(C)(=O)=O)c3)ccc2-n2ccc(C(F)(F)F)n2)o1` [Example 352, (3′-(4-(4-(difluoromethoxy)-3,5-difluorophenyl)-2-methyloxazol-5-yl)-3-fluoro-5-(methylsulfonyl)-4′-(3-(trifluoromethyl)-1H-pyrazol-1-yl)biphenyl-4-yl)methanol]: the concentration giving a half-maximal response (EC50) stood at 14 nM. For the same compound, the Emax under setting [1] was determined as 76%.

In the case of `Cc1nc(-c2cc(-c3cc(F)c(CO)c(S(C)(=O)=O)c3)ccc2-n2ccc(C(F)(F)F)n2)c(-c2cc(F)c(OC(F)F)c(F)c2)o1` [Example 410, (3′-(5-(4-(difluoromethoxy)-3,5-difluorophenyl)-2-methyloxazol-4-yl)-3-fluoro-5-(methylsulfonyl)-4′-(3-(trifluoromethyl)-1H-pyrazol-1-yl)biphenyl-4-yl)methanol], the EC50 amounted to 20 nM. The Emax under setting [1] worked out at 82%.

The EC50 is the midpoint of the concentration-response curve.

The values are drawn from US9751869B2, “LXR modulators” (BRISTOL-MYERS SQUIBB COMPANY, priority 2013, dated 2017).
